Data: PMC2733882, “Structure of Hordeum vulgare NADPH-dependent thioredoxin reductase 2. Unwinding the reaction mechanism” (Acta Crystallographica Section D: Biological Crystallography, 2009)

Legend:
HvNTR2 [1] = target: T1, HvNTR2 (Hordeum vulgare, UniProt A9LN30); assay: X-ray crystal structure, […] A; assay type: binding; conditions: crystals pH 3.5, 0.1 M citrate; one FAD per subunit in FAD domain, tightly bound
T1 construct: gene NTR2; recombinant, E. coli Rosetta (DE3); FAD domain 1-126 and 255-331, NADPH domain 127-254; model residues 6-323 (A), 5-323 (B); homodimer
T1 sequence (A9LN30 1-331): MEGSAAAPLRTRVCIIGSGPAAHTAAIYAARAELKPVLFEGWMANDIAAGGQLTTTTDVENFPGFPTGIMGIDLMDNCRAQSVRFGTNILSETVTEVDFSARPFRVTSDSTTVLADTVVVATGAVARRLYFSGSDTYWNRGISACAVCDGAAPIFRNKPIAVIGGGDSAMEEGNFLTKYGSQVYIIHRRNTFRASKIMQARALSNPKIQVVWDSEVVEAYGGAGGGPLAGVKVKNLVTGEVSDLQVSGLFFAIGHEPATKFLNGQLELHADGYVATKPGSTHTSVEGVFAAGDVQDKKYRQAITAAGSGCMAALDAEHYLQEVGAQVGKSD

HvNTR2 [2] = target: T1, HvNTR2; assay: bleaching of yellow HvNTR2 crystals (FAD reduction); assay type: biochemical; conditions: 10 mM NADPH, 30 min, in crystals; NADPH not seen in the structure

SMILES | X-ray crystal structure, 2.6 A (HvNTR2 [1]) | bleaching of yellow HvNTR2 crystals (FAD reduction) (HvNTR2 [2])
Cc1cc2nc3c(=O)[nH]c(=O)nc-3n(C[C@H](O)[C@H](O)[C@H](O)COP(=O)(O)OP(=O)(O)OC[C@H]3O[C@@H](n4cnc5c(N)ncnc54)[C@H](O)[C@@H]3O)c2cc1C [FAD] | One FAD molecule with well defined electron density | 
NC(=O)C1=CN([C@@H]2O[C@H](COP(=O)(O)OP(=O)(O)OC[C@H]3O[C@@H](n4cnc5c(N)ncnc54)[C@H](OP(=O)(O)O)[C@@H]3O)[C@@H](O)[C@H]2O)C=CC1 [NADPH] |  | FAD can still be reduced by NADPH as judged from the bleaching
